We go through 2 molecules from US20030104443A1, “AFAP sequences, polypeptides, antibodies and methods” (University of West Virginia, priority 2001, published 2003).

In assay [1] the test system is AFAP-110 in C3H10T1/2 cells. As to the kind of experiment: Phosphoamino acid analysis of AFAP-110 after PMA treatment. The assay is classed as cell-based. As to conditions: 100 nM PMA, 15 min; relative to 4α-PDD treatment; densitometry. As to the method: (1, PKCα (0.5 μg); 2, PKCα (0.5 μg)+rAFAP-110 (10 μg); 3, rAFAP-110 (10 μg)). Data are representative of three experiments. […] C3H10T1/2 cells were serum-starved in phosphate-free media supplemented with radiolabeled ^32P-orthophosphate overnight and treated with 100 nM PMA, 100 nM 4α-PDD, or DMSO, the vehicle used. Cells were lysed after 15 min and AFAP-110 was immunoprecipitated using the antibody F1. Radiolabeled AFAP-110 was isolated by SDS-PAGE and subjected to phosphoamino acid analysis.
To test whether AFAP-110 could be phosphorylated in cells in response to PKC activation in vivo, serum-starved C3H10T1/2 fibroblasts labeled with ^32P-orthophosphate were stimulated with 100 nM PMA for 15 min to activate PKC. Cos-1 cells were maintained and transfected as previously described (Guappone and Flynn, 1997, supra). C3H10T1/2 cells were cultured as previously described (Qian et al., 2000, supra). Transient transfections of C3H10T1/2 cells were carried out using SuperFect (QIAGEN, Santa Clarita, Calif.) as previously described (Qian et al., 2000, supra).
Phosphoamino Acid Analysis C3H10T1/2 cells were grown to 60% confluence in 100-mm culture dishes, serum starved overnight, and then stimulated with 100 nM PMA or 100 nM 4α-PDD for 15 min. […] Relative intensity compared with background of radiation from spots was quantitated with ImageQuant software (Molecular Dynamics, Sunnyvale, Calif.).

A further assay deals with C3H10T1/2 cells. As to the kind of experiment: Immunofluorescence of actin structures after PMA treatment. The assay is classed as cell-based. As to the method:
For PKC activation with PMA, C3H10T1/2 cells were transfected with plasmids encoding AFAP-110. Twenty-four hours after transfections, the cells were serum starved overnight. PMA at 100 nM was used to activate PKC for 60 min. Cells were fixed and permeablized as previously described (Qian et al., 1998, supra). After washing, cells were labeled with BODIPY 650/665 phalloidin (Molecular Probes, Eugene, Oreg.) and 4C3 antibody for 20 min. Cells were washed again and then labeled with ALEXA 488 (Molecular Probes) for 25 min. Cells were washed and mounted on slides with Fluoromount (Fisher, Pittsburgh, Pa.). For serum induction experiments, C3H10T1/2 cells were serum starved overnight, and then serum-complete media was added. Cells on coverslips were washed and fixed at 15-min time points >2 h. Polyclonal antibody F1 and TRITC-labeled anti-rabbit secondary antibody were used to visualize endogenous AFAP-110, with washings as above. BODIPY 650/665 phalloidin was used to visualize actin. A Zeiss LSM 510 microscope (Thornwood, N.Y.) was used to gather images, which were recolored from grayscale. Scale bars were generated and inserted by LSM 510 software (Carl Zeiss, Thornwood, N.Y.).
Immunofluorescence labeling and imaging was carried out as described. C3H10T1/2 cells expressing AFAP-110 were treated with either 100 nM PMA (A1-A3) or 100 nM 4α-PDD (A4-A6) for 15 min after overnight serum starvation. AFAP-110 is represented in red (A1 and A4), whereas actin is represented in green (A2 and A5). (A3 and A6) Overlap images of AFAP-110 and actin. Arrows indicate colocalization of AFAP-110 with dynamic actin structures: white arrows, filopodia; gray arrows, lamellipodia; black arrows, actin filaments in the top panel and disrupted actin filaments/rosettes in the bottom panel. […] Immunofluorescence labeling and imaging were carried out as described in Experimental Procedures. C3H10T1/2 cells coexpressing GFP-AFAP-110 (B1) and myristoylated, Flag-tagged PKC were labeled to show Flag-tagged PKC (B2) and actin (B3). Arrows indicate colocalization of AFAP-110 with dynamic actin structures: white arrows label filopodia and black arrows label lamellipodia. […] Immunofluorescence labeling and imaging were carried out as described. C3H10T1/2 cells were transfected with pCMV-GFP-AFAP-110 (C1-C6) and pCMV-GFP-AFAP^Δ180-226 (C7-C9). PMA at 100 nM was used to stimulate the cells for 1 h. C1, C4, and C7; green GFP fusion protein images; C2, C5, and C8; X actin images; C3, C6, and C9, overlap images of GFP fusion protein and actin images.

In assay [2] the test system is actin filaments. Description: Low-speed cosedimentation assay (20,800×g), actin filament cross-linking. The assay is classed as biochemical. Conditions: 0.5 μM protein, 2 μM actin filaments; FIG. 13A. The source says: (§1) Binding constants were derived from the sedimentation of rAFAP-110 by actin. Accordingly, rAFAP-110 in the pellet and supernatant correspond to the bound and free rAFAP-110, respectively. The sum of densities of rAFAP-110 bands in the supernatant and pellet corresponds to the total mass of rAFAP-110 in the sample. The data representing the bound rAFAP-110 as a function of free rAFAP-110 were fit by nonlinear least squares to both the Langmuir (B=BMAX/(1+Kd/F)) and […] 2 μM F-actin filaments and different concentrations of rAFAP-110 in 5 mM MgCl2, 1 mM EGTA, 2 mM ATP, and 50 mM KCl at 20,800×g for 30 min at 4° C. After the centrifugation, both supernatant and pellets were analyzed by SDS-PAGE gel. Confocal microscopy assays were performed as described (Ishikawa et al., 1998, J. Biol. Chem., 273:26991-26997). Briefly, 2 μM F-actin containing 10% rhodamine-phalloidin-labeled F-actin were mixed with different concentrations of rAFAP-110 or other purified recombinant proteins in 5 mM MgCl2, 1 mM EGTA, 2 mM ATP, and 50 mM KCl at RT for 30 min. After the incubation, the reactions were applied between glass slides and coverslips and observed under confocal microscopy (Zeiss, Oberkochen, Germany). Samples for negative staining were adsorbed to grids coated with nitrocellulose and stabilized with carbon (Ernest F. Fullam, Latham, N.Y.). Unbound protein was removed by successive washes with buffer and water before staining with 1% uranylacetate (Cooper and Pollard, 1982, Methods Enzymol., 85(PtB), 182-210; Pollard and Cooper, 1982, Methods Enzymol., 85(PtB), 211-233).
Actin filaments are unable to efficiently pellet at 20,800×g unless cross-linked to form heavier particles (either isotropic networked or bundled actin filaments; Cooper and Pollard, 1982, supra; Pollard and Cooper, 1982, supra; Meyer et al., 1990, J. Cell. Biol. 110:2013-2024; Wachsstock et al., 1993, Biophys. J., 65: 205-214; Rybakova et al., 1996, J. Cell. Biol., 135:661-672). […] The purified recombinant proteins were incubated with actin filaments and then were centrifuged at 20,800×g. Both supernatants (S) and pellets (P) were applied to SDS-PAGE gel, followed by Coomassie staining. 1, rAFAP-110 with actin filaments; 2, rAFAP-110^Δcterm with actin filaments; 3, rAFAP-110 only; 4, rAFAP-110^Δcterm only; 5, actin filaments only. FIG. 8B is a graph of cross-linked actin filaments versus free rAFAP-110. rAFAP-110 at 0.05,0.11,0.21,0.43, 0.86, and 2.14 μM was incubated with the 2 μM concentration of G-actin polymerized into actin filaments. After the incubation, the reactions were centrifuged at 20,800×g. Both supernatants and pellets were applied to SDS-PAGE gel, followed by the Western blot analysis to detect rAFAP-110 and Coomassie blue staining to detect actin, respectively. The data of cross-linked actin filaments and free rAFA-110 were gathered by scanning densitometry of SDS-PAGE gel analysis.

The subject of assay [3] is actin filaments. As to the kind of experiment: Confocal microscopy of rhodamine-phalloidin-labeled actin filaments. The assay is classed as biochemical. Conditions: 0.5 μM protein, 2 μM actin filaments; FIG. 13B.
Text: as §1
To further test AFAP-110's capability to cross-link actin filaments, we analyzed rhodamine-phalloidin-labeled actin filaments for cross-linking by confocal microscopy. In FIG. 9A, purified rAFAP-110 or rAFAP-110^Δcterm were incubated with rhodamine-phalloidin-labeled actin filaments. […] 1, actin filaments only; 2, rAFAP-110 with actin filaments; 3, rAFAP-110^Δcterm with actin filaments. FIG. 9B presents confocal microscopy images. Different concentrations of α-actinin (top two panels, low=0.0625 μM and high=1.25 μM) and rAFAP-110 (bottom two panels, low=0.106 μM and high=2.1 μM) were incubated with rhodamine-phalloidin-labeled actin filaments. […] Actin filaments labeled with rhodamine-phalloidin appeared uniformly fluorescent in the absence of an actin binding protein (FIG. 9A1). […] Electron microscopy was used to confirm rAFAP-110's ability to cross-link actin filaments.

The mark [4] stands for this setting: after treatment with 100 nM PMA.

For the molecule `CCCCCCCCCCCCCC(=O)O[C@@H]1[C@@H](C)[C@@]2(O)[C@@H](C=C(CO)C[C@]3(O)C(=O)C(C)=C[C@@H]23)[C@@H]2C(C)(C)[C@]12OC(C)=O` [PMA], in assay [1], the “increase in phosphoserine of AFAP-110” value turned out to be 3.9 fold and the “increase in phosphothreonine of AFAP-110” value amounted to 5.7 fold. For the same molecule, the “time in which the changes occur” value in the assay on C3H10T1/2 cells (100 nM PMA) is listed as not above 15 min. Further, the “actin structures upon PMA treatment” value with C3H10T1/2 cells (100 nM PMA, serum-starved cells expressing AFAP-110) is “Lamellipodia, filopodia, and rosettes appear”. Also, in the assay with C3H10T1/2 cells (setting [4]), the “time by which cells completely reverted to quiescent phenotype” value was not above 6 h and the “time by which changes largely revert” value is recorded as not above 2 h.

B1: PKCα phosphorylated rAFAP-110: rAFAP-110 phosphorylated with recombinant PKCα (protein, UniProt Q90738 1-729, looked up)
Actin filament-associated …: MEELIVELRLFLELLDHEYLTSTVREKKAVITNILLRIQSSKGFEIKEHVQKPEVANSLPAPPQMPLPEIPQQWLPPDNGPPPLPTSSLPEGYYEEAVPVSPGKAPEYITSNYDSDAMSSSYESYDEEEEDGKGKKMRHQWPSEEASMDLVKDAKICAFLLRKKRFGQWTKLLCVIKENKLLCYKSSKDQQPQMELLLNDCSITYIPKDSKKKKHELKISHQGADALVLAVQSKEQAEQWLKVIKDVCSNCTGTVDSDGPLSSSPVHKTELEKKLSSERPSSDGEGAVENGITTVCNGKEQVKRKKSSKTEAKGTVTKVTGKKITKIIGLGKKKPSTDEQTSSAEEDVPTCGYLNVLSNNRWRERWCRVKDNKLIFHKDRTDLKTHIVSIPLRGCEVIPGLDSKHPLTFRLLRNGQEVAVLEASSSEDMGRWIGMLLAETGSSTDPGALHYDYIDVEMTASVIQAAKQTFCFMNRRVISTNPYRGSTANGYACPSGMALHYDDVPCINGSFKGKKPPATANGITGKVRTLNSQPKKPESVSCVKRTASNAEQYKYGKNRVEAVAKRLQSKEEELLKRKEALRNRLAQLRKERKDLRAAIEVNAGRKTQVILEDKLKKLEEECKTKEAERVNLELELTEVKESLKKALAGGITLGLAIEPKSGTSSPQSPIFKHRTLENSPISSCDTSDTECSIPVNSAAALKRPPSSNNSPCRGHVLRKAKEWEMKNGT
modifications: PKCalpha phosphorylated
notes: rAFAP-110 phosphorylated with recombinant PKCα
As to B1, the “ability to coprecipitate actin filaments compared with rAFAP-110” value with actin filaments [2] was “increased the ability of rAFAP-110 to coprecipitate actin filaments”. Also, the “confocal fluorescence pattern of actin filaments” value in the assay with actin filaments [3] is recorded as “large aggregates of fluorescence”.
